Measured values from publication PMC6409085, “Three odorant-binding proteins are involved in the behavioral response of Sogatella furcifera to rice plant volatiles” (PeerJ, 2019).
“And” between values parts separate entries of the source, which are not always exact repeats. Identical values can stand only once.

Assays:
S. furcifera adults = experiment: Y-tube olfactometer behavioral trials; format: in vivo, Sogatella furcifera; details: odorant 50 µL/L vs hexane
Method in brief: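 Single S. furcifera adults (2 days post-emergence, starved 0.5 h) chose between odorant (100 µL of 50 µL/L on filter paper) and hexane control in a glass Y-tube, charcoal-filtered humidified air 300 mL/min per arm, 25 ± 1 °C, 50% RH. Choice scored if insect passed half an arm and stayed >1 min within 10 min; 45 insects per compound, chi-squared test.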

SfurOBP2 = SfurOBP2 (Sogatella furcifera, UniProt V5T759); experiment: biochemical; format: binding
Chain of SfurOBP2 (V5T759 entry or part of it): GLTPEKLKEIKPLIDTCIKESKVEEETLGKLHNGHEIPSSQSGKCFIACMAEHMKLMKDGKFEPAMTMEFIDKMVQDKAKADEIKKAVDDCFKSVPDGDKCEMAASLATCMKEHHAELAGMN
Method in brief: (§1)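 In 50 mM Tris-HCl pH 7.4, odorants displace 1-NPN (2.0 µM) from 2.0 µM protein. Emission at 390–490 nm under 337 nm excitation is measured 2 min after competitor addition, in triplicate. Ki is obtained from IC50 and the 1-NPN dissociation constant.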

SfurOBP3 = SfurOBP3 (Sogatella furcifera, UniProt V5T818); experiment: biochemical; format: binding; details: for Fluorescence competitive binding assay, fluorescence intensity: OBP3, three replicate columns
Chain of SfurOBP3 (V5T818 entry or part of it): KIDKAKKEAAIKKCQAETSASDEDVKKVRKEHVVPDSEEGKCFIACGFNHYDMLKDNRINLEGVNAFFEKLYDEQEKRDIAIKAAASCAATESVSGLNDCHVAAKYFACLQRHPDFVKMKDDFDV
Method in brief: as §1

SfurOBP11 = SfurOBP11 (Sogatella furcifera, UniProt V5T6E3); experiment: biochemical; format: binding
Chain of SfurOBP11 (V5T6E3 entry or part of it): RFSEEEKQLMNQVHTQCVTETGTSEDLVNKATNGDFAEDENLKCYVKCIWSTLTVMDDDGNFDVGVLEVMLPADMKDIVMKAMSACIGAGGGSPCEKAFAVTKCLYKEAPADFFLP
Method in brief: as §1

SfurOBP1 = SfurOBP1 (Sogatella furcifera, UniProt V5T8N5); experiment: biochemical; format: binding; details: for Fluorescence competitive binding assay, fluorescence intensity: OBP1, three replicate columns
Chain of SfurOBP1 (V5T8N5 entry or part of it): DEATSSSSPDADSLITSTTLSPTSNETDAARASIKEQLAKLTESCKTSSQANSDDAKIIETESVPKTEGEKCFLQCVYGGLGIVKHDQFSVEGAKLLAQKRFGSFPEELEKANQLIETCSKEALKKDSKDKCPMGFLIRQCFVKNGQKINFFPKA
Method in brief: as §1

IC50 (SfurOBP2; SfurOBP2, protein and 1-NPN both 2.0 µM, competitor 2-20 µM, read-out: IC50): > 20 µM | Fluorescence competitive binding assay, OBP2 (raw fluorescence reading) (SfurOBP2; ligand concentration 2 (unit not given), replicate column 1 of 3): 13775 | Fluorescence competitive binding assay, OBP2 (raw fluorescence reading) (SfurOBP2; ligand concentration 2 (unit not given), replicate column 2 of 3): 13769 | Fluorescence competitive binding assay, OBP2 (raw fluorescence reading) (SfurOBP2; ligand concentration 2 (unit not given), replicate column 3 of 3): 13734 | Fluorescence competitive binding assay, OBP2 (raw fluorescence reading) (SfurOBP2; ligand concentration 4 (unit not given), replicate column 1 of 3): 13631 | Fluorescence competitive binding assay, OBP2 (raw fluorescence reading) (SfurOBP2; ligand concentration 4 (unit not given), replicate column 2 of 3): 13783 | Fluorescence competitive binding assay, OBP2 (raw fluorescence reading) (SfurOBP2; ligand concentration 4 (unit not given), replicate column 3 of 3): 13500 | Fluorescence competitive binding assay, OBP2 (raw fluorescence reading) (SfurOBP2; ligand concentration 6 (unit not given), replicate column 1 of 3): 14480 | Fluorescence competitive binding assay, OBP2 (raw fluorescence reading) (SfurOBP2; ligand concentration 6 (unit not given), replicate column 2 of 3): 14028 | Fluorescence competitive binding assay, OBP2 (raw fluorescence reading) (SfurOBP2; ligand concentration 6 (unit not given), replicate column 3 of 3): 13866 | Fluorescence competitive binding assay, OBP2 (raw fluorescence reading) (SfurOBP2; ligand concentration 8 (unit not given), replicate column 1 of 3): 14049 | Fluorescence competitive binding assay, OBP2 (raw fluorescence reading) (SfurOBP2; ligand concentration 8 (unit not given), replicate column 2 of 3): 14101 | Fluorescence competitive binding assay, OBP2 (raw fluorescence reading) (SfurOBP2; ligand concentration 8 (unit not given), replicate column 3 of 3): 13901 | Fluorescence competitive binding assay, OBP2 (raw fluorescence reading) (SfurOBP2; ligand concentration 10 (unit not given), replicate column 1 of 3): 14583 | Fluorescence competitive binding assay, OBP2 (raw fluorescence reading) (SfurOBP2; ligand concentration 10 (unit not given), replicate column 2 of 3): 14099 | Fluorescence competitive binding assay, OBP2 (raw fluorescence reading) (SfurOBP2; ligand concentration 10 (unit not given), replicate column 3 of 3): 14077 | Fluorescence competitive binding assay, OBP2 (raw fluorescence reading) (SfurOBP2; ligand concentration 12 (unit not given), replicate column 1 of 3): 12819 | Fluorescence competitive binding assay, OBP2 (raw fluorescence reading) (SfurOBP2; ligand concentration 12 (unit not given), replicate column 2 of 3): 13447 | Fluorescence competitive binding assay, OBP2 (raw fluorescence reading) (SfurOBP2; ligand concentration 12 (unit not given), replicate column 3 of 3): 13211 | Fluorescence competitive binding assay, OBP2 (raw fluorescence reading) (SfurOBP2; ligand concentration 14 (unit not given), replicate column 1 of 3): 12583 | Fluorescence competitive binding assay, OBP2 (raw fluorescence reading) (SfurOBP2; ligand concentration 14 (unit not given), replicate column 2 of 3): 13279 | Fluorescence competitive binding assay, OBP2 (raw fluorescence reading) (SfurOBP2; ligand concentration 14 (unit not given), replicate column 3 of 3): 13266 | Fluorescence competitive binding assay, OBP2 (raw fluorescence reading) (SfurOBP2; ligand concentration 16 (unit not given), replicate column 1 of 3): 12291 | Fluorescence competitive binding assay, OBP2 (raw fluorescence reading) (SfurOBP2; ligand concentration 16 (unit not given), replicate column 2 of 3): 12273 | Fluorescence competitive binding assay, OBP2 (raw fluorescence reading) (SfurOBP2; ligand concentration 16 (unit not given), replicate column 3 of 3): 12414 | Fluorescence competitive binding assay, OBP2 (raw fluorescence reading) (SfurOBP2; ligand concentration 18 (unit not given), replicate column 1 of 3): 15293 | Fluorescence competitive binding assay, OBP2 (raw fluorescence reading) (SfurOBP2; ligand concentration 18 (unit not given), replicate column 2 of 3): 14599 | Fluorescence competitive binding assay, OBP2 (raw fluorescence reading) (SfurOBP2; ligand concentration 18 (unit not given), replicate column 3 of 3): 14178 | Fluorescence competitive binding assay, OBP2 (raw fluorescence reading) (SfurOBP2; ligand concentration 20 (unit not given), replicate column 1 of 3): 14271 | Fluorescence competitive binding assay, OBP2 (raw fluorescence reading) (SfurOBP2; ligand concentration 20 (unit not given), replicate column 2 of 3): 14231 | Fluorescence competitive binding assay, OBP2 (raw fluorescence reading) (SfurOBP2; ligand concentration 20 (unit not given), replicate column 3 of 3): 15281 | Fluorescence competitive binding assay, fluorescence intensity (SfurOBP3; ligand concentration 2): 74152 and 72365 and 72059 | Fluorescence competitive binding assay, fluorescence intensity (SfurOBP3; ligand concentration 4): 77402 and 81799 and 77600 | Fluorescence competitive binding assay, fluorescence intensity (SfurOBP3; ligand concentration 6): 79862 and 82180 and 72867 | Fluorescence competitive binding assay, fluorescence intensity (SfurOBP3; ligand concentration 8): 73959 and 76680 and 68556 | Fluorescence competitive binding assay, fluorescence intensity (SfurOBP3; ligand concentration 10): 74938 and 80983 and 75877 | Fluorescence competitive binding assay, fluorescence intensity (SfurOBP3; ligand concentration 12): 71318 and 75448 and 71285 | Fluorescence competitive binding assay, fluorescence intensity (SfurOBP3; ligand concentration 14): 70629 and 72724 and 74851 | Fluorescence competitive binding assay, fluorescence intensity (SfurOBP3; ligand concentration 16): 63137 and 66714 and 63682 | Fluorescence competitive binding assay, fluorescence intensity (SfurOBP3; ligand concentration 18): 73714 and 82385 and 76604 | Fluorescence competitive binding assay, fluorescence intensity (SfurOBP3; ligand concentration 20): 75970 and 66519 and 62854 | IC50 (SfurOBP3; SfurOBP3, protein and 1-NPN both 2.0 µM, competitor 2-20 µM, read-out: IC50): > 20 µM | IC50 (SfurOBP11; SfurOBP11, protein and 1-NPN both 2.0 µM, competitor 2-20 µM, read-out: IC50): > 20 µM | Fluorescence intensity, fluorescence competitive binding assay, OBP11 (SfurOBP11; ligand concentration 2, replicate 1): 27436 | Fluorescence intensity, fluorescence competitive binding assay, OBP11 (SfurOBP11; ligand concentration 2, replicate 2): 25403 | Fluorescence intensity, fluorescence competitive binding assay, OBP11 (SfurOBP11; ligand concentration 2, replicate 3): 32188 | Fluorescence intensity, fluorescence competitive binding assay, OBP11 (SfurOBP11; ligand concentration 4, replicate 1): 29413 | Fluorescence intensity, fluorescence competitive binding assay, OBP11 (SfurOBP11; ligand concentration 4, replicate 2): 28026 | Fluorescence intensity, fluorescence competitive binding assay, OBP11 (SfurOBP11; ligand concentration 4, replicate 3): 33638 | Fluorescence intensity, fluorescence competitive binding assay, OBP11 (SfurOBP11; ligand concentration 6, replicate 1): 33021 | Fluorescence intensity, fluorescence competitive binding assay, OBP11 (SfurOBP11; ligand concentration 6, replicate 2): 33682 | Fluorescence intensity, fluorescence competitive binding assay, OBP11 (SfurOBP11; ligand concentration 6, replicate 3): 34343 | Fluorescence intensity, fluorescence competitive binding assay, OBP11 (SfurOBP11; ligand concentration 8, replicate 1): 31948 | Fluorescence intensity, fluorescence competitive binding assay, OBP11 (SfurOBP11; ligand concentration 8, replicate 2): 30771 | Fluorescence intensity, fluorescence competitive binding assay, OBP11 (SfurOBP11; ligand concentration 8, replicate 3): 33124 | Fluorescence intensity, fluorescence competitive binding assay, OBP11 (SfurOBP11; ligand concentration 10, replicate 1): 30756 | Fluorescence intensity, fluorescence competitive binding assay, OBP11 (SfurOBP11; ligand concentration 10, replicate 2): 30287 | Fluorescence intensity, fluorescence competitive binding assay, OBP11 (SfurOBP11; ligand concentration 10, replicate 3): 30522 | Fluorescence intensity, fluorescence competitive binding assay, OBP11 (SfurOBP11; ligand concentration 12, replicate 1): 29262 | Fluorescence intensity, fluorescence competitive binding assay, OBP11 (SfurOBP11; ligand concentration 12, replicate 2): 31182 | Fluorescence intensity, fluorescence competitive binding assay, OBP11 (SfurOBP11; ligand concentration 12, replicate 3): 32197 | Fluorescence intensity, fluorescence competitive binding assay, OBP11 (SfurOBP11; ligand concentration 14, replicate 1): 28697 | Fluorescence intensity, fluorescence competitive binding assay, OBP11 (SfurOBP11; ligand concentration 14, replicate 2): 28336 | Fluorescence intensity, fluorescence competitive binding assay, OBP11 (SfurOBP11; ligand concentration 14, replicate 3): 31391 | Fluorescence intensity, fluorescence competitive binding assay, OBP11 (SfurOBP11; ligand concentration 16, replicate 1): 26235 | Fluorescence intensity, fluorescence competitive binding assay, OBP11 (SfurOBP11; ligand concentration 16, replicate 2): 27774 | Fluorescence intensity, fluorescence competitive binding assay, OBP11 (SfurOBP11; ligand concentration 16, replicate 3): 27525 | Fluorescence intensity, fluorescence competitive binding assay, OBP11 (SfurOBP11; ligand concentration 18, replicate 1): 34849 | Fluorescence intensity, fluorescence competitive binding assay, OBP11 (SfurOBP11; ligand concentration 18, replicate 2): 34941 | Fluorescence intensity, fluorescence competitive binding assay, OBP11 (SfurOBP11; ligand concentration 18, replicate 3): 33114 | Fluorescence intensity, fluorescence competitive binding assay, OBP11 (SfurOBP11; ligand concentration 20, replicate 1): 29304 | Fluorescence intensity, fluorescence competitive binding assay, OBP11 (SfurOBP11; ligand concentration 20, replicate 2): 30167 | Fluorescence intensity, fluorescence competitive binding assay, OBP11 (SfurOBP11; ligand concentration 20, replicate 3): 28561 | Fluorescence competitive binding assay, fluorescence intensity (SfurOBP1; ligand concentration 2 (μM)): 8889 and 7931 and 9847 | Fluorescence competitive binding assay, fluorescence intensity (SfurOBP1; ligand concentration 4 (μM)): 9154 and 8432 and 9875 | Fluorescence competitive binding assay, fluorescence intensity (SfurOBP1; ligand concentration 6 (μM)): 7581 and 8720 and 8173 | Fluorescence competitive binding assay, fluorescence intensity (SfurOBP1; ligand concentration 8 (μM)): 8276 and 7641 and 8381 | Fluorescence competitive binding assay, fluorescence intensity (SfurOBP1; ligand concentration 10 (μM)): 7644 and 8267 and 8233 | Fluorescence competitive binding assay, fluorescence intensity (SfurOBP1; ligand concentration 12 (μM)): 8969 and 10263 and 9250 | Fluorescence competitive binding assay, fluorescence intensity (SfurOBP1; ligand concentration 14 (μM)): 8392 and 9042 and 10874 | Fluorescence competitive binding assay, fluorescence intensity (SfurOBP1; ligand concentration 16 (μM)): 8482 and 9466 and 8778 | Fluorescence competitive binding assay, fluorescence intensity (SfurOBP1; ligand concentration 18 (μM)): 11781 and 12671 and 12573 | Fluorescence competitive binding assay, fluorescence intensity (SfurOBP1; ligand concentration 20 (μM)): 13259 and 11367 and 9255 | IC50 (SfurOBP1; SfurOBP1, protein and 1-NPN both 2.0 µM, competitor 2-20 µM, read-out: IC50): > 20 µM
SMILES: CCCCCCCCCCC [n-hendecane]
behavioral response of S. furcifera (in words) (S. furcifera adults): strongly attracted | number of insects choosing hexane arm (S. furcifera adults; adults): 8 | number of insects choosing volatilies arm (S. furcifera adults; adults): 18 | number of insects failed (no choice) (S. furcifera adults; adults): 14
